Measurements published in US20170022201A1, “MACROCYLIC PYRIDINE DERIVATIVES” (Janssen Pharmaceutica NV, priority 2014, published 2017).

Assays:
[1] = biological target: T1, EF2K (Homo sapiens, UniProt O00418); test: Biochemical EF2K lysate-based kinase assay (AlphaLISA p-eEF2 Thr56); conditions: LN-229 cell lysates, 10 mM ATP, pH 6.6; pIC50 = -log IC50 (M); read-out: eEF2K_C_alphalisa pIC50 (converted)
T1 construct: host or cells: LN-229 glioblastoma cell lysate
T1 sequence (O00418 1-725): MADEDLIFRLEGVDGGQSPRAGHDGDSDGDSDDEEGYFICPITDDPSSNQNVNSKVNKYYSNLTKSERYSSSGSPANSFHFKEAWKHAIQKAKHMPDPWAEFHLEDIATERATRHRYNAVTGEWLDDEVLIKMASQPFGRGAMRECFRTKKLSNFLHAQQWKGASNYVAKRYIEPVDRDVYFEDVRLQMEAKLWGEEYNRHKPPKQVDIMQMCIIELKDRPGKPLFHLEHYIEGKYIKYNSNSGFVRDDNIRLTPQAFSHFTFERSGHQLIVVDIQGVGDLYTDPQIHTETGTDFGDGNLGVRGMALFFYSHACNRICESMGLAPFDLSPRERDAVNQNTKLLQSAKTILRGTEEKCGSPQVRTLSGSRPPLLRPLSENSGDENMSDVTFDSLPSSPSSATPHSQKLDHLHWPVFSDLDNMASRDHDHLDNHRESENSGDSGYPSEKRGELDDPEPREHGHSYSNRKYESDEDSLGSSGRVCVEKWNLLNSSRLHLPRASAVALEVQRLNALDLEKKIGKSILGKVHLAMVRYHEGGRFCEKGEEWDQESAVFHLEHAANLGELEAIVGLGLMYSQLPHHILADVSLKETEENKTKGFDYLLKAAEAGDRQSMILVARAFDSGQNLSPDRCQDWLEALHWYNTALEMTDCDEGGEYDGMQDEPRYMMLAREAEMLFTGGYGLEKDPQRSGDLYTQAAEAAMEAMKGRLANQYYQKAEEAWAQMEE
Outline: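 LN-229 glioblastoma lysate supplied both EF2K and eEF2 substrate; compound incubated with lysate 15 minutes at room temperature at pH 6.6 with 10 mM Mg2+ and 10 mM ATP, then stopped with excess EDTA. Thr56-phosphorylated eEF2 detected by sandwich AlphaLISA, final read after overnight standing.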

[2] = biological target: T2, eEF2K (Homo sapiens, UniProt O00418); test: EF2K cell-based assay (P-EF2 AlphaLISA, 2-deoxyglucose stimulated MCF10A cells); conditions: 2.5 mM 2-deoxyglucose 4 h, phosphorylation of EF2 at Thr 56, pIC50 = -log IC50 (M), read-out: eEF2K_C_PThr56 pIC50 (converted)
T2 construct: in the immortalized epithelial breast cell lines, MCF10A; host or cells: MCF10A immortalized breast epithelial cells
T2 sequence (O00418 1-725): T1 sequence (O00418 1-725)
Outline: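 MCF10A cells pretreated with compound for 1 h, then stimulated with 2.5 mM 2-deoxyglucose for 4 h to deplete ATP and activate AMPK. Phospho-EF2 in lysates measured by AlphaLISA.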

[3] = biological target: PIK3C3 lipid kinase (Homo sapiens, UniProt Q8NEB9); test: Biochemical Vps34 lipid kinase assay (ADP-Glo); conditions: 20 μM ATP; for remaining activity at 1 µM: 1 h, single dose 1 μM, residual activity compared to control (DMSO), read-out: VPS34_1microM_%ofcntrl; for IC50: serial dilution 10 μM to 0.3 nM, pIC50 = -log IC50 (M)
Outline: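 ADP-Glo luminescence measured PIK3C3 (7.6 nM) activity with 50 μM substrate, 20 μM ATP (apparent Km), 3 mM MnCl2, HEPES pH 7.5, 60 min at 30° C. Compounds tested at 1 μM single dose (residual activity vs DMSO) or half-log series 10 μM–0.3 nM giving pIC50.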

PIK3C3 lipid kinase, sequence (Q8NEB9 whole entry): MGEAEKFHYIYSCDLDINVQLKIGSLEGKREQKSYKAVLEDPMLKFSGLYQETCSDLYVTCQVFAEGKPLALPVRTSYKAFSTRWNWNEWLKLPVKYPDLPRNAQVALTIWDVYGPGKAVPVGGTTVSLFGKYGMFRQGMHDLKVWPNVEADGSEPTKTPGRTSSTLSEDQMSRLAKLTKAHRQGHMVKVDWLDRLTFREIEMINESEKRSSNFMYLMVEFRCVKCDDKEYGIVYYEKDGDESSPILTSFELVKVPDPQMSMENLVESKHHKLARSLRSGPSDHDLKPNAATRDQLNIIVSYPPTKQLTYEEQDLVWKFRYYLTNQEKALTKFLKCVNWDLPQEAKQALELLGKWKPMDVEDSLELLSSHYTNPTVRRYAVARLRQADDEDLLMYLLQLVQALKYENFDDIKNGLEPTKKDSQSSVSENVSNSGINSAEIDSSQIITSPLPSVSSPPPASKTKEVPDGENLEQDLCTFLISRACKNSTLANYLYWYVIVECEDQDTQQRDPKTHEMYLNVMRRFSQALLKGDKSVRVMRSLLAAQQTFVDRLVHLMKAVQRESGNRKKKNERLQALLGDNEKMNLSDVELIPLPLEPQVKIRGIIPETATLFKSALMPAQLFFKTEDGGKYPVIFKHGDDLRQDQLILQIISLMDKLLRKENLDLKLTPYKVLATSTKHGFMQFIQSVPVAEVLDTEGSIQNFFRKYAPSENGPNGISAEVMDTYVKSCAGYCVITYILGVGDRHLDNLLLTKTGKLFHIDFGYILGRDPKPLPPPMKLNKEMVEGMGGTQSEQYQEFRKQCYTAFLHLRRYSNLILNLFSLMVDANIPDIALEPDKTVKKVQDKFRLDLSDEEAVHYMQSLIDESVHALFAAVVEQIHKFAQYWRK

IC50 [1] [M] | IC50 [2] [M] | melting point [°C] | remaining activity at 1 µM [3] [%] | IC50 [3] [M] | SMILES
1.12e-07 | 1.62e-05 | 267.8 to 267.9 | 12.5 | 1.07e-07 | O=C1CN2CCN(Cc3cccc(c3)Nc3cc(ccn3)-c3cnc(nc3)NCCCN1)C(CO)C2 (single isomer, unassigned) [Compound 7]
7.59e-07 | 2.88e-05 | 255.3 to 256.8 | 22.4 | 5.89e-07 | O=C1CN2CCC(CC2)Nc2cccc(c2)Nc2cc(ccn2)-c2cnc(nc2)NCCCN1 [Compound 106]
~1.51e-05 | > 3.02e-05 | 143 | 53.7 |  | O=C1CNCCNc2ccc(cn2)-c2ccnc(c2)Nc2cccc(c2)CN2CCN1CC2 [Compound 144]
3.31e-07 | 2.45e-05 | 162 | 32.1 |  | CC1CN2CCN1Cc1cccc(c1)Nc1cc(ccn1)-c1ccc(nc1)NCCCNC(=O)C2 (stereo not drawn) [Compound 71]
